Assay results reported in patent US20240182406A1, “COMPOUNDS AS SOLUBLE EPOXIDE HYDROLASE INHIBITORS” (UNIVERSITAT DE BARCELONA, priority 2021, published 2024).
Marks after values point to notes of the source that are not given here.

Tests used:
[1] = test system: TREM2; experiment: Western blot of hippocampus, neuroinflammation marker TREM2 (5×FAD mice); type: in vivo, mouse; conditions: 5×FAD male mice, 5 mg/kg, 4 weeks, Arbitrary Units, control as 100%
Source text: 5×FAD (tg6799) is an early-onset mouse transgenic model which overexpress mutant human APP(695) with the Swedish (K670N, M671L), Florida (I716V) and London (V717I) Familial Alzheimer's Disease (FAD) mutations along with human PS1 harbouring two FAD mutations (M146L and L286V). The Tg6799 line used is the original hybrid B6SJL background, and this hybrid B6SJL strain is used as a control of healthy animals. The mouse Thy1 promoter regulates both transgenes to drive overexpression in the brain. 5×FAD mice recapitulate major features of AD amyloid pathology and is a useful model of intraneuronal Abeta-42 induced neurodegeneration with amyloid increase brain content and amyloid plaque formation and tau hyperphosphorylation (J Neurosci. 2006, 26(40), 10129-10140).
The test compound was dissolved in 1.8% hydroxypropyl-beta-cyclodextrin and concentration in water was calculated according to the weekly animal consumption to reach the precise daily dose. A freshly made weekly replaces the drinking solution. The amount of water that the animals drink was monitored weekly, by the cage, and drug concentration was adjusted every week to reach the precise dose. […]
Afterwards, membranes were washed and incubated with secondary antibodies for 1 h at room temperature. […] Immunodetection of GADPH routinely monitored protein loading. […]

[2] = test system: C57BL/6 mice; experiment: Cerulein-induced acute pancreatitis murine model; type: in vivo, mouse
Source text: Acute pancreatitis (AP) is a potentially life-threatening gastrointestinal disease, and its incidence has been increasing over the last few decades. The onset of the disease is thought to be triggered by intra-acinar cell activation of digestive enzymes that results in interstitial edema, inflammation and acinar cell death that often leads to a systemic inflammation response. […] The experimental procedure for the in vivo efficacy study followed already published protocols (Mol Pharmacol. 2015 August; 88(2):281-90)
In vivo efficacy study. Forty-one male C57BL/6 mice (eight week-old; approximately 24 g) were supplied by Envigo (Barcelona, Spain) (Ref. 16512). During the experimental procedure, animals were identified with permanent marker (tail code numbers). […] Animals were kept in an environmentally controlled room (ventilation, temperature 22±2° C. and humidity 35-65%) on a 12-h light/dark cycle. A period of 7 days of acclimatization underwent between the date of arrival and the start of the procedure. […] The maintenance diet was supplied by Harlan Interfauna Ibérica S. L. (2018 Harlan Teklad Global Diets). Diet will be provided to the animals ad libitum, but they were fasted overnight before first cerulein injection, and food was replaced after last cerulein injection. Tap water was supplied by CASSA (Servei d'Aigües de Sabadell) ad libitum. The animals were maintained in accordance with European Directive for the Protection of Vertebrate Animals Used for Experimental and other Scientific Purposes (86/609/EU). Decree 214/1997 of 30th July. Ministry of agriculture, livestock and fishing of the Autonomous Government of Catalonia, Spain. Royal Decree 53/2013 of 1st February (Spain). All the experimental procedures were approved by the Ethical Committee on human and animal experimentation (CEEAH) of Universitat Autònoma de Barcelona (UAB) (procedure number: 4107) and by the Animal Experimentation Commission of the Generalitat de Catalunya (Catalan Government) (DAAM: 10146). […]

## O=C(NC12CC3CC(Cl)(CC(C1)c1ccccc13)C2)N[C@H]1CC[C@H](Oc2ccc(C(=O)O)cc2)CC1 [Example 2, 4-[((1r,4r)-4-(3-(9-chloro-5,6,8,9,10,11-hexahydro-7H-5,9:7,11-dimethanobenzo[9]annulen-7-yl)ureido)cyclohexyl)oxy]benzoic acid]
[1]; listed as Cpd. Ex. 2
  TREM2 protein levels: 118.42 ± 6.53*^
[1]; listed as compound of example 2
  TREM2 protein levels: significant diminution in the protein levels
[2]; both doses 0.1 and 0.3 mg/kg IP
  histologic analysis of pancreas (H&E), severity of cerulein-induced pancreatitis: ameliorated cerulein-induced effects
[2]; cerulein 50 μg/kg IP x12, single dose 0.3 or 0.1 mg/kg IP, only 0.3 mg/kg significant (p<0.01 vs Cerulein)
  body weight change at end of study: increased body weight
[2]; higher dose 0.3 mg/kg IP
  histologic analysis of pancreas (H&E), pancreatic damage, edema, neutrophils infiltration: more efficiently reversed the pancreatic damage, edema and neutrophils infiltration
